In brackets after ≈: the same amount, converted by molar mass.
How the values were obtained:
[1] = Aqueous solubility in FaSSIF; type: physicochemical; details: for solubility at 16 h: kinetic from dmso stock
[2] = biological target: CYP1A2 (Homo sapiens (Human), UniProt P05177); test: Human Cytochrome P450 Inhibition Assay (Bactosomes); type: in vitro ADME; details: recombinant enzyme
Protocol: (§1) The ability of test compounds to inhibit five of the most relevant cytochrome P450 enzymes was measured by determination of the activity of cytochrome P450 enzymes in recombinant cytochrome preparations, called Bactosomes (Cypex Ltd, Dundee, Scotland UK DD2 1 NH), in the presence of a specific probe substrate. Bactosomes are a highly efficient and cost-effective source of recombinant CYP450s which have a higher specific activity of enzyme compared to other sources, such as liver microsomes. […] The following CYP450 isoforms were assayed: CYP1A2, CYP2C9, CYP2C19, CYP2D6 and CYP3A4. The study of CYP450 inhibition potential in Bactosomes is accepted as a valuable model permitting rapid prediction of potential drug-drug interactions in vivo (see, e.g., Weaver et al., 2003).
(§2) Bactosomes were obtained from a commercial source (Cypex, Scotland, UK). Test compounds were incubated with Bactosomes at 6 concentrations. Samples were incubated for 10 minutes, after which the reaction was stopped and the samples analysed by LC-MS/MS Multiple Reaction Monitoring (MRM) for the presence/amount of substrate probe.
(§3) CYP450 enzymes (final protein 75 pmol/mL for CYP1A2; 12.5 pmol/mL for CYP2C19; and 25 pmol/mL for CYP2C9, 2D6 and 3A4), 0.1 M phosphate buffer pH 7.4, probe and test compound (final concentration 50, 15.8, 5, 1.58, 0.5 and 0.158 μM; diluted from 10 mM stock solution to give a final DMSO concentration of 1%) were pre-incubated at 37° C. for 5 minutes. The reaction was initiated by the addition of 20 μL of 10 mM NADPH in phosphate buffer. The final incubation volume was 200 μL. The following control inhibitors were used for each CYP450 inhibition assay: CYP1A2: α-naphthoflavone; CYP2C9: sulfaphenazole; CYP2C19: tranylcypromine; CYP2D6: quinidine; CYP3A4: ketoconazole.
(§4) Each compound was incubated for 10 minutes at 37° C. The reactions were stopped by the addition of methanol (final composition 1:1, aqueous: methanol). The incubation plates were shaken, chilled at […] for 2 hours, and centrifuged at 3500 rpm for 15 minutes at 4° C. to precipitate the protein.

[3] = biological target: CYP2C19 (Homo sapiens (Human), UniProt P33261); test: as above; type: in vitro ADME; details: recombinant Bactosomes, 10 minutes
Protocol: as §1, §2, §3, §4

[4] = biological target: CYP2C9 (Homo sapiens (Human), UniProt P11712); test: as above; type: in vitro ADME; details: recombinant Bactosomes, 10 minutes
Protocol: as §1, §2, §3, §4

[5] = biological target: CYP2D6 (Homo sapiens (Human), UniProt P10635); test: as above; type: in vitro ADME; details: recombinant Bactosomes, 10 minutes
Protocol: as §1, §2, §3, §4

[6] = biological target: CYP3A4 (Homo sapiens (Human), UniProt P08684); test: as above; type: in vitro ADME; details: recombinant Bactosomes, 10 minutes
Protocol: as §1, §2, §3, §4

[7] = biological target: hERG (Homo sapiens (Human), UniProt Q12809); test: hERG Ion Channel binding assay (3H astemizole displacement); details: human, membranes of HEK293 cells stably expressing hERG, pH 7.4, probe 3H astemizole (1.5 nM); 30 μM; displacement of 3H astemizole, hERG-HEK293 membranes
Summary of the method: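 Membranes from stably transfected hERG-HEK293 cells incubated with 1.5 nM ³H-astemizole ± test compound in HEPES buffer pH 7.4 (0.1% BSA, 5 mM KCl, 130 mM NaCl) at 25° C for 60 min. Bound ligand measured by filtration and scintillation counting; reported as % displacement (0% none, 100% complete).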

[8] = pH 6.5, 16 hours, room temperature

Sequence of CYP2C9 (P11712 whole entry): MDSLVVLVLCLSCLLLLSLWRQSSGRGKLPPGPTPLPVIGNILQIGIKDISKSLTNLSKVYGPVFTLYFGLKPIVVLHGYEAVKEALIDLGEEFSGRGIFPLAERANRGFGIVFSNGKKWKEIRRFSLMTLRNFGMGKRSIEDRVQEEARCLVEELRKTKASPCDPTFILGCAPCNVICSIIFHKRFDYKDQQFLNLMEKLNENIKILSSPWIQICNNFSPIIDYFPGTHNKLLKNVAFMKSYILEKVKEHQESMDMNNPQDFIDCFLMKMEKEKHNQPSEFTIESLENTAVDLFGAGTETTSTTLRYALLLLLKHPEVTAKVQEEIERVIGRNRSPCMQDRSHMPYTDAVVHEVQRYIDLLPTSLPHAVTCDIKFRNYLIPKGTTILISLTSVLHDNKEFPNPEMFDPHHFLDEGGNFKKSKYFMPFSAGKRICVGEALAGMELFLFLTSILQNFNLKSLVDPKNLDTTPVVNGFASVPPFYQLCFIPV
Sequence of hERG (Q12809 whole entry): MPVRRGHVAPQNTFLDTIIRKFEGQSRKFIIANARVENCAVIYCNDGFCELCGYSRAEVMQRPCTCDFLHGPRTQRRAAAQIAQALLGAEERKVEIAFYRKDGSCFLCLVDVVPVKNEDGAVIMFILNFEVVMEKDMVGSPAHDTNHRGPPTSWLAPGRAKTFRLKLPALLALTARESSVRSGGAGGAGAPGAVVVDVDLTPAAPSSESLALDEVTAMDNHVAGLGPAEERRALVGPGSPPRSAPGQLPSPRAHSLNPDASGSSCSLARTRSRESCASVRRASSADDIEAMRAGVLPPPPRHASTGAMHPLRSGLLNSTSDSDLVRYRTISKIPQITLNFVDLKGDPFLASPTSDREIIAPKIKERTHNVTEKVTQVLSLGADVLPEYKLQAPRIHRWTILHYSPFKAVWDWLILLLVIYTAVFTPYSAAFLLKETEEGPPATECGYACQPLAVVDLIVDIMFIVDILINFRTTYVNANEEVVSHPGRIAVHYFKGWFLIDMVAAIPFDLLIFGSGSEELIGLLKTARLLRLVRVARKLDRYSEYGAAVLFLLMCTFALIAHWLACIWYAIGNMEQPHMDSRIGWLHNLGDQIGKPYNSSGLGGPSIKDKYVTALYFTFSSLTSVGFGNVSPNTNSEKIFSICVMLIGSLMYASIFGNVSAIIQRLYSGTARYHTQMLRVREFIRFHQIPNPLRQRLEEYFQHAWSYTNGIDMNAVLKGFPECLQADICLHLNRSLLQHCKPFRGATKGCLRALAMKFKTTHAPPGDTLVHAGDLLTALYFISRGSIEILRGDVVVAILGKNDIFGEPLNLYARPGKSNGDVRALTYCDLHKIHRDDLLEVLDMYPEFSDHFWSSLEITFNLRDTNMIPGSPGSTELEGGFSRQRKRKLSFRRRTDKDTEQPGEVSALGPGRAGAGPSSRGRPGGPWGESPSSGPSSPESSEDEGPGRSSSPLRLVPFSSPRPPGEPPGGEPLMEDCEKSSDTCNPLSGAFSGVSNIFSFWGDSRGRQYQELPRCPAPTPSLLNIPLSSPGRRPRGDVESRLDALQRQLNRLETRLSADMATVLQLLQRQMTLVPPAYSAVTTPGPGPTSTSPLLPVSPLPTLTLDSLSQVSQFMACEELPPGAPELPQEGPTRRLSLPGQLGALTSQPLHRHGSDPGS
Sequence of CYP2D6 (P10635 whole entry): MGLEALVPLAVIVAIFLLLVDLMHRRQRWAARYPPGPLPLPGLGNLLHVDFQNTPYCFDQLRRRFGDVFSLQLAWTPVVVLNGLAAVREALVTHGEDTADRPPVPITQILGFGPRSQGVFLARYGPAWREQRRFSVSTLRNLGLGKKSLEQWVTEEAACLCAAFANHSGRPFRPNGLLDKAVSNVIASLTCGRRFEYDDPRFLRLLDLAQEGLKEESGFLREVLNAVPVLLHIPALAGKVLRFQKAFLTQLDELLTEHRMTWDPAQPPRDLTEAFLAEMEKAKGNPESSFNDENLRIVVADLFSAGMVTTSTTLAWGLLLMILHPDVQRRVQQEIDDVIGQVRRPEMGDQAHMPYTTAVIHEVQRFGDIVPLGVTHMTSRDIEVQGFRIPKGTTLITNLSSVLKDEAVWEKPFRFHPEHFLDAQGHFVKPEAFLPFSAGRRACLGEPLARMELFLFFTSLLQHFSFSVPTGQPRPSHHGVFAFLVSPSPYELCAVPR
Sequence of CYP3A4 (P08684 whole entry): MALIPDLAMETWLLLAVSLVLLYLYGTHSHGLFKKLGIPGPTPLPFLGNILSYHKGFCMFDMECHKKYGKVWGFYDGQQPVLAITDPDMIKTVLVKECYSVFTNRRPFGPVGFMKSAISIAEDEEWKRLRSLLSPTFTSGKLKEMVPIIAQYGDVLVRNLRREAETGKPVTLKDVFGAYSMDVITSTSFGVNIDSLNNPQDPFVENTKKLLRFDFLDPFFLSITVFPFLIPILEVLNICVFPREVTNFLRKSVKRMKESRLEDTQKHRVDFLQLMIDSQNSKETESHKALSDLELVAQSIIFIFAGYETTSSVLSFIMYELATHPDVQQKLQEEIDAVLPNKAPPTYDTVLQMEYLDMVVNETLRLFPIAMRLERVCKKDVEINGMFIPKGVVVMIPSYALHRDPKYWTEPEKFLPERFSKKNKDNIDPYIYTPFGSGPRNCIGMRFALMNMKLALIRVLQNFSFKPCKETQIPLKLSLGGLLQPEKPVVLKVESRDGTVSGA
Sequence of CYP2C19 (P33261 whole entry): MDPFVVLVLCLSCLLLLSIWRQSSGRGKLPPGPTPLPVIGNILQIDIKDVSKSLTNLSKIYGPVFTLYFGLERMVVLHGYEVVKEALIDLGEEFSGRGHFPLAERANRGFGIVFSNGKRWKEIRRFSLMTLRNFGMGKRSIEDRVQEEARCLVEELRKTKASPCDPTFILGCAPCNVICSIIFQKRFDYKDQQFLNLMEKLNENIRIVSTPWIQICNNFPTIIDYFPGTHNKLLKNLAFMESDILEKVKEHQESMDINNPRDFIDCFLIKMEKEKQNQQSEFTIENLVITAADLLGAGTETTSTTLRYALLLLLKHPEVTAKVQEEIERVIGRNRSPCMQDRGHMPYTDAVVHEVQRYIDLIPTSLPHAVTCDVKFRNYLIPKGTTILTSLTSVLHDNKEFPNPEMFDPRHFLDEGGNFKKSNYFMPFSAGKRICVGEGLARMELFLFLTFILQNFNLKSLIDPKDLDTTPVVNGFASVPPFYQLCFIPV
Sequence of CYP1A2 (P05177 whole entry, canonical isoform): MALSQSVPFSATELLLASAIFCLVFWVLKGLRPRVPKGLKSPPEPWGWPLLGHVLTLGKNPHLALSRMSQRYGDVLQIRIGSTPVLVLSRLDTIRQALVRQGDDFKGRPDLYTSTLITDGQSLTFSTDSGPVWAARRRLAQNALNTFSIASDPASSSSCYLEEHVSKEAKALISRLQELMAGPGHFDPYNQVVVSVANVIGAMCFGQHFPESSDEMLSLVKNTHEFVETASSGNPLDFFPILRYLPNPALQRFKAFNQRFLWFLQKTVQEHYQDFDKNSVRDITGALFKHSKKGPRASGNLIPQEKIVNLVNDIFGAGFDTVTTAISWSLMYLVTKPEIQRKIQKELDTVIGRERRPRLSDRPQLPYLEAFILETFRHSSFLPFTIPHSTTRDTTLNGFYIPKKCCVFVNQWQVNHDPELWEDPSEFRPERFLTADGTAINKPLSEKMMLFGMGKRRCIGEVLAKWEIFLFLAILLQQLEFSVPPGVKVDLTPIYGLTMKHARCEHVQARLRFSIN

Row | IC50 [3] | IC50 [4] | IC50 [5] | IC50 [6] | solubility (in words) [1] | solubility at 16 h [1, 8] | IC50 ([2]; human, 10 min, pH 7.4) | SMILES | Solubility [1, 8] | Solubility ([1]; pH 6.8) | IC50 [2] | inhibition at 60 min, 30 µM [7]
1 | > 50 µM | 21.5 µM | > 50 µM | > 50 µM | particularly good solubility | 73 µg/mL (≈ 179 µM) | > 50 µM | CCC(=O)N1CCC(CS(=O)(=O)c2ccc(-c3ccc(F)cc3F)cc2)CC1 [NASMP-15, 1-(4-(((2′,4′-Difluoro-[1,1′-biphenyl]-4-yl)sulfonyl)methyl)piperidin-1-yl)propan-1-one] | – | – | – | 45%
2 | > 50 µM | 15.4 µM | 45.4 µM | > 50 µM | particularly good solubility | 68 µg/mL (≈ 147 µM) | > 50 µM | CC(=O)N1CCC(CS(=O)(=O)c2ccc(-c3ccc(F)cc3F)cc2C(F)(F)F)CC1 [NASMP-12, 1-(4-(((2′,4′-Difluoro-3-(trifluoromethyl)-[1,1′-biphenyl]-4-yl)sulfonyl)methyl)piperidin-1-yl)ethan-1-one] | – | – | – | 35%
3 | 17.8 µM | > 50 µM | > 50 µM | 44.5 µM | – | 28 µg/mL (≈ 71.2 µM) | > 50 µM | CC(=O)N1CCC(CS(=O)(=O)c2ccc(-c3c(F)cccc3F)cc2)CC1 [NASMP-09, 1-(4-(((2′,6′-Difluoro-[1,1′-biphenyl]-4-yl)sulfonyl)methyl)piperidin-1-yl)ethan-1-one] | – | – | – | 7%

The next lines start with the compound.

Row | SMILES | IC50 [3] | IC50 [4] | IC50 [5] | IC50 [6] | solubility (in words) [1] | solubility at 16 h [1, 8] | IC50 ([2]; human, 10 min, pH 7.4) | Solubility [1, 8] | Solubility ([1]; pH 6.8) | IC50 [2] | inhibition at 60 min, 30 µM [7]
4 | CC1(O)CCC(NS(=O)(=O)c2ccc(-c3ccc(F)cc3F)cc2)CC1 (stereo not shown) [ABD899, reference compound] | 7.3 µM | 3.9 µM | 45.3 µM | 21.6 µM | – | – | – | 0.06 ^(3) mg/mL | 0.13 mg/mL (≈ 341 µM) | > 25 µM | –
5 | CC(=O)N1CCC(CS(=O)(=O)c2ccc(-c3ccc(Cl)cc3C#N)cc2)CC1 [NASMP-06, 4′-(((1-Acetylpiperidin-4-yl)methyl)sulfonyl)-4-chloro-[1,1′-biphenyl]-2-carbonitrile] | > 50 µM | 42.7 µM | > 50 µM | > 50 µM | particularly good solubility | 83 µg/mL (≈ 199 µM) | > 50 µM | – | – | – | 35%
6 | CC(=O)N1CCC(CS(=O)(=O)c2ccc(-c3ccc(C#N)cc3Cl)cc2)CC1 [NASMP-05, 4′-(((1-Acetylpiperidin-4-yl)methyl)sulfonyl)-2-chloro-[1,1′-biphenyl]-4-carbonitrile] | > 50 µM | > 50 µM | > 50 µM | > 50 µM | particularly good solubility | 62 µg/mL (≈ 149 µM) | > 50 µM | – | – | – | 23%
7 | CC(=O)N1CCC(CS(=O)(=O)c2ccc(-c3ccc(C(F)(F)F)cc3F)cc2)CC1 [NASMP-07, 1-(4-(((2′-Fluoro-4′-(trifluoromethyl)-[1,1′-biphenyl]-4-yl)sulfonyl)methyl)piperidin-1-yl)ethan-1-one] | 36.4 µM | 19.6 µM | > 50 µM | > 50 µM | particularly good solubility | 89 µg/mL (≈ 201 µM) | > 50 µM | – | – | – | 79%
8 | CC(=O)N1CCC(CS(=O)(=O)c2ccc(-c3ccc(F)cc3F)cc2)CC1 [NASMP-01, 1-(4-(((2′,4′-Difluoro-[1,1′-biphenyl]-4-yl)sulfonyl)methyl)piperidin-1-yl)ethan-1-one] | > 50 µM | > 50 µM | > 50 µM | > 50 µM | – | 75 µg/mL (≈ 191 µM) | > 50 µM | – | – | – | 14%

Source: patent US12162836B2, “N-acyl-{4-[(4-aryl-phenyl)sulfonylmethyl]piperidine} compounds and their therapeutic use” (Modern Biosciences Limited, priority 2019, dated 2024)
